# Values quoted from earlier work as cited in patent publication US5112837A, “Quinoline derivatives having anti-tumor activity” (Imperial Chemical Industries PLC, priority 1987, dated 1992).
# Assays:
# [1] = system: human breast, ovarian and liver cancer; settings: clinical trials
# [2] = literature references
smiles,measurement,setting,value
C#CCN(Cc1ccc2nc(N)[nH]c(=O)c2c1)c1ccc(C(=O)N[C@@H](CCC(=O)O)C(=O)O)cc1 [CB3717],activity against human cancer,[1],"promising activity against human breast, ovarian and liver cancer"
same,symptoms of toxicity in humans,[2],"symptoms of toxicity in humans, particularly in relation to the liver and kidney"
